{
  "source": "patent US20090227606A1",
  "about": "“Methods for Preventing or Treating Acute and Chronic Pain” (priority 2006, published 2009)",
  "key": {"[1]": {"tested_on": "GLT-1", "conditions": "Zelenaia et al. 2000, cited from earlier work; for effect on db-cAMP-dependent GLT-1 expression: db-cAMP-treated astrocytes; for GLT-1 induction in cultured astrocytes: Schlag et al. 1998"}, "[2]": {"tested_on": "primary cultured astrocytes", "test": "Astrocyte morphology and process length, phase contrast microscopy", "format": "cell-based, rat", "experimental": "Astrocyte cultures were prepared from the cortices of neonatal rats (1-3 days old) using the Worthington Papain Dissociation System (Worthington Biochemical Corporation, Lakewood, N.J.) according to the method of Huettner and Baughman (1986. J. Neurosci. 6:3044-3060). Briefly, cortices of neonatal rats were dissected, treated with papain (20 U/ml), dissociated by trituration and plated in 75 cm^2 flasks in Dulbecco's modified Eagle's medium (DMEM) supplemented with 10% charcoal-stripped fetal bovine serum (FBS), 1% GlutaMax and 1% penicillin/streptomycin (P/S, 100 U/ml penicillin, 100 μg/ml streptomycin, P/S). Cells were fed twice weekly until they reached confluence (Day in vitro, DIV 10-12) at which point they were mechanically shaken for 1 hr on an orbital shaker to remove any remaining oligodendrocytes and microglia. Subsequently, cultures were treated with trypsin for 30 minutes at 37° C. and re-plated into 6 or 12-well dishes at a density of about 3.0×10^4 cells/cm^2. Resultant cultures were greater than 95% astrocytic as determined by GFAP immunostaining.\n(§1) After approximately 14 days (2 days after subplating into plates, DIV 14) astrocytes had formed a confluent monolayer. […] Phase contrast microscopy was then carried out in order to assess the morphology of cells after the various treatments. Length of astrocyte processes was quantified by measuring all processes in 2-3 phase contrast images/group by an independent observer, blinded to the treatment groups using Image J v1.34s (National Institutes of Health, Bethesda, Md.)."}, "[3]": {"tested_on": "GLAST", "test": "Immunocytochemistry of cultured astrocytes, GLAST staining", "format": "cell-based, rat", "conditions": "treated astrocytes", "experimental": "Primary astrocyte-enriched cultures were plated onto sterile 18 mm glass coverslips. After three washes in PBS, cells were permeabilized in 5% glacial acetic acid/95% ethanol (acid-alcohol) for 10 minutes. After washing, cells were incubated in a 1% normal goat serum for 30 minutes and then overnight at 4° C. in primary mouse anti-GFAP (1:500), rabbit anti-GLT-1 (1:500) or guinea pig anti-GLAST (1:2000). The following day, cells were washed and then incubated for 2 hours at room temperature with goat anti-mouse Alexa Fluor™-555 (Invitrogen Corporation, Carlsbad, Calif.) goat anti-guinea pig Alexa Fluor™-488 (Invitrogen Corporation, Carlsbad, Calif.) or goat anti-rabbit Alexa Fluor™-488 (Invitrogen Corporation, Carlsbad, Calif.; all at 1:250). Finally, cells were post-fixed in acid-alcohol and mounted with Vectashield (Vector Labs, Burlingame, Calif.) containing 4′,6-diamidino-2-phenylindole dihydrochloride hydrate (DAPI, Sigma Chemical Co., St Louis, Mo.), in order to visualize cell nuclei. The sections were examined with a fluorescence microscope, and images were captured with a Q-Fire cooled camera (Olympus, Melville, N.Y.). Confocal microscopy was also performed using a Zeiss LSM 510 Meta confocal microscope (Carl Zeiss AG, Oberkochen, Germany). Merged color images were processed using Adobe Photoshop 7.0 (Adobe Systems, San Jose, Calif.)."}, "[4]": {"tested_on": "GLT-1 mRNA", "test": "Real Time RT-PCR of cultured astrocytes, GLT-1 mRNA", "format": "cell-based, rat", "conditions": "propentofylline 10, 100, 1000 μM; db-cAMP 250 μM; relative to GAPDH", "experimental": "as §1\n(§2) Total RNA was isolated from astrocyte cultures using the Qiagen RNeasy mini-kit (Qiagen Inc., Valencia, Calif.) according to the manufacturer's protocol for isolation of total RNA from animal cells. Reverse transcription (RT) was carried out using the high-capacity cDNA archive kit (Applied Biosystems, Foster City, Calif.) according to the vendor's protocol. Real-time RT-PCR reactions were carried out in a total reaction volume of 25 μL containing a final concentration of 1.5 U Platinum Taq DNA polymerase (Invitrogen Corporation, Carlsbad, Calif.); 20 mM Tris HCl (pH 8.4); 50 mM KCl; 3 mM MgCl2; 200 μM dGTP, dCTP, and dATP; 400 μM dUTP and 1 U of UDG (uracyl DNA glycosylase); 900 nM of forward and reverse primers; 300 nM Taqman probe; and 5 μL of cDNA (50 ng) from the RT step. The iCycler™ Multicolor Real-Time PCR detection system (Bio-Rad Laboratories, Hercules, Calif.) was used to quantify PCR product. The fluorescence and threshold values (CT) obtained were used to compare the relative amount of target mRNA in experimental groups to those of controls using the 2^−ΔΔC^T method (Livak, K. J. and T. D. Schmittgen. 2001. Methods 25:402-408). Each experiment was run twice and samples were run in duplicate. For each sample, the mean CT value for the control gene (GAPDH) was then subtracted from the mean CT value for the gene of interest (GLT-1, GLAST) to obtain a ΔCT value. The ΔCT values for the control group (untreated) were then averaged and subtracted from the ΔCT for the experimental groups to obtain the ΔΔCT. The relative fold change from control was then expressed by calculation of 2^−ΔΔC^T for each sample and the results are expressed as the group mean fold change±SEM."}, "[5]": {"tested_on": "GLAST mRNA", "test": "Real Time RT-PCR of cultured astrocytes, GLAST mRNA", "format": "cell-based, rat", "conditions": "propentofylline 10, 100, 1000 μM; db-cAMP 250 μM; relative to GAPDH", "experimental": "as §1\nas §2, with “The ΔCT values for the control group (untreated) were then averaged and subtracted from the ΔCT for the experimental groups to obtain the ΔΔCT.” left out"}, "[6]": {"tested_on": "GLAST", "test": "Western blot of cultured astrocytes, GLAST protein", "format": "cell-based, rat", "conditions": "3 or 7 days, normalized to β-actin", "experimental": "as §1\nCells were scraped into PBS containing a protease inhibitor cocktail (1:1000, Sigma Chemical Co., St. Louis, Mo.) and then lysed by sonication in 5 one-second pulses. The samples were stored at −80° C. until use. Total protein was determined using the Lowry method (DC assay, Bio-Rad, Hercules, Calif.). Forty micrograms of protein (diluted in sample buffer and boiled) and standard protein markers were subjected to SDS/7.5% polyacrylamide gel electrophoresis and transferred to polyvinylidene difluoride (PVDF) membranes. Nonspecific binding was blocked by incubation with 5% milk/PBS-Tween at room temperature for 1 hour followed by incubation overnight at 4° C. with rabbit anti-GLT-1 (1:500) or guinea pig anti-GLAST (1:2500). The following day, blots were washed and incubated for 1 hour at room temperature with goat anti-rabbit HRP-conjugated secondary (1:3000) or goat anti-guinea pig HRP-conjugated secondary antibody (1:5000) and visualized with enhanced chemiluminescence (ECL). Images were obtained using the Typhoon Imaging System (Amersham-GE Healthcare, Piscataway, N.J.). Finally, blots were incubated for 15 minutes in stripping buffer and reprobed with a monoclonal mouse anti-β-actin antibody (1:10,000) as a loading control. Densitometric analysis was performed using ImageQuant 5.2 (Molecular Dynamics, GE Healthcare, Piscataway, N.J.)."}, "[7]": {"tested_on": "MIP-2 (CXCL2)", "test": "ELISA of MIP-2 release from cultured astrocytes", "format": "cell-based, rat", "conditions": "seven days, LPS 1 μg/ml; propentofylline 1000 μM; db-cAMP 250 μM", "experimental": "as §1\n(§3) Standard ELISA was performed for quantitative determination of MCP-1 and MIP-2 protein in cell culture supernatant. Assays were carried out according to the manufacturer's specifications (Biosource, Camarillo, Calif.) using the sandwich enzyme immunoassay procedure. Optical density at 450 nm was obtained using the MRX Revelations program (Dynex Technologies, Chantilly, Va.) and relative protein concentrations were determined by comparing samples to the standard curve generated."}, "[8]": {"tested_on": "MCP-1 (CCL2)", "test": "ELISA of MCP-1 release from cultured astrocytes", "format": "cell-based, rat", "conditions": "seven days", "experimental": "as §1, §3"}, "[9]": {"tested_on": "Na+-dependent glutamate transport", "conditions": "db-cAMP, Schlag et al. 1998; cited from earlier work"}},
  "note": "Entries after “also recorded” stand apart in the source; their conditions may differ. Where two headings read alike, the source gives them in different places.",
  "data": [
    {"compound": "CCCCCCOC(=O)[C@]1(O)C[C@@H]2O[C@@]1(C)n1c3ccccc3c3c4c(c5c6ccccc6n2c5c31)C(=O)NC4", "note": "[KT5720]", "values": [
      {"measurement": "effect on db-cAMP-dependent GLT-1 expression", "setting": "[1]", "result": "blocks induction of GLT-1 protein"}
    ]},
    {"compound": "COc1cccc(-c2cc(=O)c3ccccc3o2)c1N", "note": "[PD98059]", "values": [
      {"measurement": "effect on db-cAMP-dependent GLT-1 expression", "setting": "[1]", "result": "partially attenuates"}
    ]},
    {"compound": "S=C(S)N1CCCC1", "note": "[PDTC]", "values": [
      {"measurement": "effect on db-cAMP-dependent GLT-1 expression", "setting": "[1]", "result": "inhibited db-cAMP-mediated increases in GLT-1 expression"}
    ]},
    {"compound": "CCCC(=O)Nc1ncnc2c1ncn2[C@@H]1O[C@@H]2COP(=O)(O)O[C@H]2[C@H]1OC(=O)CCC", "note": "[db-cAMP, dibutyryl cyclic-adenosine-5′,3′-monophosphate]", "values": [
      {"measurement": "astrocyte morphology", "setting": "[2]; 3 days or 7 days of treatment, phase contrast microscopy", "result": "extend fewer, longer processes"},
      {"measurement": "length of astrocyte processes", "setting": "[2]; 7 days, 250 μM db-cAMP vs. 1000 μM propentofylline", "result": "significantly longer processes than propentofylline; also recorded: significantly longer processes than PPF"},
      {"measurement": "GLAST staining", "setting": "[3]", "result": "slightly increased GLAST staining"},
      {"measurement": "GLT-1 mRNA level, in words", "setting": "[4]", "result": "mimicked"},
      {"measurement": "GLAST mRNA level, in words", "setting": "[5]", "result": "mimicked"},
      {"measurement": "GLAST protein level, in words", "setting": "[6]", "result": "greater increase in GLAST than high dose propentofylline"},
      {"measurement": "LPS-induced MIP-2 (CXCL2) release", "setting": "[7]", "result": "had no effect on LPS-induced chemokine release"},
      {"measurement": "LPS-induced MCP-1 (CCL2) release", "setting": "[8]; LPS 1 μg/ml, propentofylline 1000 μM, db-cAMP 250 μM", "result": "had no effect on LPS-induced chemokine release"},
      {"measurement": "basal MCP-1 (CCL2) release, treatment alone", "setting": "[8]; without LPS", "result": "significantly increased MCP-1 (CCL2) above basal levels"},
      {"measurement": "increase in glutamate transport activity", "setting": "[9]", "result": 2, "unit": "fold"},
      {"measurement": "sensitivity of increased glutamate uptake to DHK", "setting": "[9]", "result": "DHK-insensitive"},
      {"measurement": "GLT-1 induction in cultured astrocytes", "setting": "[1]", "result": "induced high levels of GLT-1 protein expression"},
      {"measurement": "GLT-1 induction in cultured astrocytes", "setting": "[1]; listed as dibutyryl-cAMP", "result": "induce astrocytic maturation and GLT-1 induction"}
    ]}
  ]
}
